Read-outs that look alike come from different tables or passages of the source.
Columns and labels:
Type in all cases: biochemical
[1] = molecular target: T1, TYK2 (Homo sapiens, UniProt P29597); assay: TYK2 inhibition (Table 4)
T1 construct: made in house; host or cells: SF9 insect cells (baculovirus)
T1 sequence (P29597 873-1187): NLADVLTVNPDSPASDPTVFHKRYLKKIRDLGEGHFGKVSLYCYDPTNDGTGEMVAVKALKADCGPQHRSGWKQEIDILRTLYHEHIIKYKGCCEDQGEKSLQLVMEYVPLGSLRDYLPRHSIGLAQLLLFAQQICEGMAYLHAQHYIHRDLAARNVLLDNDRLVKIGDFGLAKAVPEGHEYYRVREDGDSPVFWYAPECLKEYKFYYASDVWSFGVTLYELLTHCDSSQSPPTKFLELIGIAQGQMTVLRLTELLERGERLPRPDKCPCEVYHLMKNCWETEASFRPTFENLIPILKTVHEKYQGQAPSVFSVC

[2] = molecular target: T2, JAK2 (Homo sapiens, UniProt O60674); assay: JAK2 inhibition (Table 4); settings: read-out: JAK2 Ki
T2 construct: made in house; host or cells: SF9 insect cells (baculovirus)

[3] = molecular target: T3, JAK3 (Homo sapiens, UniProt P52333); assay: JAK3 inhibition (Table 4)
T3 construct: made in house; host or cells: SF9 insect cells (baculovirus)

[4] = molecular target: T4, JAK1 (Homo sapiens, UniProt P23458); assay: JAK1 inhibition (Table 4)
T4 construct: made in house; host or cells: SF9 insect cells (baculovirus)
T4 sequence (P23458 852-1154): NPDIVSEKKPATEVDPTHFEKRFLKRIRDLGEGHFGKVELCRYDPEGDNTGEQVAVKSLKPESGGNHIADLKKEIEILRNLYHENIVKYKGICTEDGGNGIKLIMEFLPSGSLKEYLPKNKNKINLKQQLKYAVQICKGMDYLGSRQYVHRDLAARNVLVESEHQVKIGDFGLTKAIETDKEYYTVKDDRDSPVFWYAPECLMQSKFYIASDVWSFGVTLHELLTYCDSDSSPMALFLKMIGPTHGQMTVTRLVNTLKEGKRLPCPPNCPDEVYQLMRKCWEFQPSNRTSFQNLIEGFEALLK

T2 sequence (O60674 812-1132): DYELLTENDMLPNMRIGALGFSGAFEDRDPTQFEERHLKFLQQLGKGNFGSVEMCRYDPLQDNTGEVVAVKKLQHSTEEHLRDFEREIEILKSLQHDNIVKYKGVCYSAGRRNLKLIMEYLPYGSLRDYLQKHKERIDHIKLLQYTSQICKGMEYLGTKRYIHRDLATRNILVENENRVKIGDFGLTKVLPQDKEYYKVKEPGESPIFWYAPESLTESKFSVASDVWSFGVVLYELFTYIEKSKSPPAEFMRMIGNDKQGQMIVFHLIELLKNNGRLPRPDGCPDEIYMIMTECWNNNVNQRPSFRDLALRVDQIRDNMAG
T3 sequence (P52333 783-1124): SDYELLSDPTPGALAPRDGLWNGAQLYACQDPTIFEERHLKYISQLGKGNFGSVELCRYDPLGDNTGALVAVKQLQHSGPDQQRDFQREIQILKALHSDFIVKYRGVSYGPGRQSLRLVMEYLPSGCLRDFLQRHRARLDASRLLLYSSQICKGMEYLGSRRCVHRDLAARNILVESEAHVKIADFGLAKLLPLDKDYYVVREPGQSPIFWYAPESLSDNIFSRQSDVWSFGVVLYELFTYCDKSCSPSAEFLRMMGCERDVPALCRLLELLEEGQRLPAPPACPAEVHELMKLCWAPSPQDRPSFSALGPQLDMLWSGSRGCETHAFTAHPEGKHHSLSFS

Ki [1] [µM] | Ki [2] [µM] | Ki ([3]; read-out: JAK3 Ki) [µM] | Ki ([4]; read-out: JAK1 Ki) [µM] | Ki ([3]; JAK3 Ki) [µM] | Ki ([4]; JAK1 Ki) [µM] | SMILES
0.129 | 0.0431 | 0.152 | 0.0152 | – | – | Cc1nc2cnc3[nH]ccc3c2n1[C@H]1CC[C@H](OC(=O)N(C)C)CC1 [Example 605, Trans dimethyl-carbamic acid 4-(2-methyl-6H-1,2,3,5,6-tetraaza-as-indacen-1-yl)-cyclohexyl ester]
0.112 | 0.0652 | 0.455 | 0.0288 | – | – | COC(=O)N(C)[C@H]1CC[C@H](n2c(CO)nc3cnc4[nH]ccc4c32)CC1 [Example 606, Trans[4-(2-hydroxymethyl-6H-1,2,3,5,6-tetraaza-as-indacen-1-yl)-cyclohexyl]-methyl-carbamic acid methyl ester]
0.0231 | 0.00446 | 0.0112 | 0.0006 | – | – | Cc1nc2cnc3[nH]ccc3c2n1[C@H]1CC[C@H](NC(=O)OCC(F)F)CC1 [Example 607, Trans[4-(2-methyl-6H-1,2,3,5,6-tetraaza-as-indacen-1-yl)-cyclohexyl]-carbamic acid 2,2-difluoro-ethyl ester]
0.182 | 0.0124 | 0.158 | 0.0178 | – | – | CNC(=O)N(C)[C@H]1CC[C@H](n2c(C)nc3cnc4[nH]ccc4c32)CC1 [Example 608, Trans 1,3-dimethyl-1-[4-(2-methyl-6H-1,2,3,5,6-tetraaza-as-indacen-1-yl)-cyclohexyl]-urea]
0.91 | 0.641 | 0.701 | 0.0967 | – | – | C[C@@H](O)c1nc2cnc3[nH]ccc3c2n1[C@H]1CC[C@H](OC(=O)N(C)C)CC1 [Example 609, Trans dimethyl-carbamic acid 4-[2-((R)-1-hydroxy-ethyl)-6H-1,2,3,5,6-tetraaza-as-indacen-1-yl]-cyclohexyl ester]
0.0177 | 0.0355 | 0.139 | 0.00725 | – | – | C[C@@H](O)c1nc2cnc3[nH]ccc3c2n1[C@H]1CC[C@H](N2CC[C@@H](C#N)C2)CC1 [Example 610, Trans (R)-1-{4-[2-((R)-1-hydroxy-ethyl)-6H-1,2,3,5,6-tetraaza-as-indacen-1-yl]-cyclohexyl}-pyrrolidine-3-carbonitrile]
0.224 | 0.455 | 0.509 | 0.0529 | – | – | C[C@@H](O)c1nc2cnc3[nH]ccc3c2n1[C@H]1CC[C@@H](N2CCC(F)(F)CC2)CC1 [Example 612, Cis (R)-1-{1-[4-(4,4-difluoro-piperidin-1-yl)-cyclohexyl]-1,6-dihydro-1,2,3,5,6-tetraaza-as-indacen-2-yl}-ethanol]
0.0145 | 0.0151 | 0.318 | 0.00258 | – | – | N#CC1CCN([C@H]2CC[C@H](n3c(CO)nc4cnc5[nH]ccc5c43)CC2)CC1 [Example 613, Trans 1-[4-(2-hydroxymethyl-6H-1,2,3,5,6-tetraaza-as-indacen-1-yl)-cyclohexyl]-piperidine-4-carbonitrile]
0.00301 | 0.0132 | 0.0633 | 0.00076 | – | – | C[C@@H](O)c1nc2cnc3[nH]ccc3c2n1[C@H]1CC[C@H](NCC(F)(F)F)CC1 [Example 614, Trans (R)-1-{1-[4-(2,2,2-trifluoro-ethylamino)-cyclohexyl]-1,6-dihydro-1,2,3,5,6-tetraaza-as-indacen-2-yl}-ethanol]
0.0215 | 0.0575 | 0.137 | 0.00196 | – | – | C[C@@H](O)c1nc2cnc3[nH]ccc3c2n1[C@H]1CC[C@H](NCCC#N)CC1 [Example 615, Trans 3-{4-[2-((R)-1-hydroxy-ethyl)-6H-1,2,3,5,6-tetraaza-as-indacen-1-yl]-cyclohexylamino}-propionitrile]
0.0121 | 0.02 | 0.0843 | 0.00449 | – | – | C[C@@H](O)c1nc2cnc3[nH]ccc3c2n1[C@H]1CC[C@H](N(C)CCC#N)CC1 [Example 616, Trans 3-({4-[2-((R)-1-hydroxy-ethyl)-6H-1,2,3,5,6-tetraaza-as-indacen-1-yl]-cyclohexyl}-methyl-amino)-propionitrile]
0.0223 | 0.0387 | 0.147 | 0.0119 | – | – | C[C@@H](O)c1nc2cnc3[nH]ccc3c2n1[C@H]1CC[C@H](N(C)CC(F)(F)F)CC1 [Example 617, Trans (R)-1-(1-{4-[methyl-(2,2,2-trifluoro-ethyl)-amino]-cyclohexyl}-1,6-dihydro-1,2,3,5,6-tetraaza-as-indacen-2-yl)-ethanol]
0.118 | 0.00869 | 0.0427 | 0.00098 | – | – | Cc1nc2cnc3[nH]ccc3c2n1[C@@H]1CC[C@@H](NC(=O)OC(C)(C)C)C1 [Example 623, [(1R,3R)-3-(2-Methyl-6H-1,2,3,5,6-tetraaza-as-indacen-1-yl)-cyclopentyl]-carbamic acid tert-butyl ester]
0.063 | 0.0102 | 0.0139 | 0.00223 | – | – | Cc1nc2cnc3[nH]ccc3c2n1[C@@H]1CC[C@@H](NC(=O)CC(F)(F)F)C1 [Example 624, 3,3,3-Trifluoro-N-[(1R,3R)-3-(2-methyl-6H-1,2,3,5,6-tetraaza-as-indacen-1-yl)-cyclopentyl]-propionamide]
0.218 | 0.0997 | 0.169 | 0.0339 | – | – | Cc1nc2cnc3[nH]ccc3c2n1[C@@H]1CC[C@@H](NC2COC2)C1 [Example 625, [(1R,3R)-3-(2-Methyl-6H-1,2,3,5,6-tetraaza-as-indacen-1-yl)-cyclopentyl]-oxetan-3-yl-amine]
0.00679 | 0.00257 | 0.0193 | 0.00085 | – | – | OC[C@H]1CC[C@H](n2cnc3cnc4[nH]ccc4c32)CC1 [Example 631, trans [4-(6H-1,2,3,5,6-Tetraaza-as-indacen-1-yl)-cyclohexyl]-methanol]
0.00608 | 0.00331 | 0.0121 | 0.00119 | – | – | Cc1nc2cnc3[nH]ccc3c2n1[C@H]1CC[C@H](CO)CC1 [Example 633, Trans[4-(2-methyl-6H-1,2,3,5,6-tetraaza-as-indacen-1-yl)-cyclohexyl]-methanol]
0.0044 | 0.0219 | 0.165 | 0.0038 | – | – | CO[C@H]1CC[C@H](n2c(CO)nc3cnc4[nH]ccc4c32)CC1 [Example 634, Trans[1-(4-Methoxy-cyclohexyl)-1,6-dihydro-1,2,3,5,6-tetraaza-as-indacen-2-yl]-methanol]
0.0065 | 0.0156 | 0.028 | 0.00382 | – | – | COC[C@H]1CC[C@H](n2c(CO)nc3cnc4[nH]ccc4c32)CC1 [Example 636, Trans[1-(4-methoxymethyl-cyclohexyl)-1,6-dihydro-1,2,3,5,6-tetraaza-as-indacen-2-yl]-methanol]
0.00742 | 0.0356 | 0.037 | 0.00189 | – | – | COC[C@H]1CC[C@H](n2c([C@@H](C)O)nc3cnc4[nH]ccc4c32)CC1 [Example 637, Trans (R)-1-[1-(4-methoxymethyl-cyclohexyl)-1,6-dihydro-1,2,3,5,6-tetraaza-as-indacen-2-yl]-ethanol]
0.00404 | 0.0144 | 0.0581 | 0.00078 | – | – | C[C@@H](O)c1nc2cnc3[nH]ccc3c2n1[C@H]1CC[C@H](OCC#N)CC1 [Example 639, Trans {4-[2-((R)-1-hydroxy-ethyl)-6H-1,2,3,5,6-tetraaza-as-indacen-1-yl]-cyclohexyloxy}-acetonitrile]
0.0251 | 0.00966 | 0.0827 | 0.00393 | – | – | N#C[C@H]1CC[C@H](n2cnc3cnc4[nH]ccc4c32)CC1 [Example 640, trans 4-(6H-1,2,3,5,6-Tetraaza-as-indacen-1-yl)-cyclohexanecarbonitrile]
0.0124 | 0.0665 | 0.254 | 0.00187 | – | – | C[C@@H](O)c1nc2cnc3[nH]ccc3c2n1[C@H]1CC[C@H](C#N)CC1 [Example 641, trans 4-[2-((R)-1-Hydroxy-ethyl)-6H-1,2,3,5,6-tetraaza-as-indacen-1-yl]-cyclohexanecarbonitrile]
0.00722 | 0.0209 | 0.185 | 0.00206 | – | – | N#C[C@H]1CC[C@H](n2c(CO)nc3cnc4[nH]ccc4c32)CC1 [Example 642, Trans 4-(2-hydroxymethyl-6H-1,2,3,5,6-tetraaza-as-indacen-1-yl)cyclohexane carbonitrile]
0.00036 | 0.00081 | 0.00531 | 0.00012 | – | – | C[C@@H](O)c1nc2cnc3[nH]ccc3c2n1[C@H]1CC[C@H](CC#N)CC1 [Example 644, Trans {4-[2-((R)-1-Hydroxy-ethyl)-6H-1,2,3,5,6-tetraaza-as-indacen-1-yl]-cyclohexyl}-acetonitrile]
0.00025 | 0.00039 | – | – | 0.00356 | 0.00013 | N#CC[C@H]1CC[C@H](n2c(CO)nc3cnc4[nH]ccc4c32)CC1 [Example 645, Trans[4-(2-hydroxymethyl-6H-1,2,3,5,6-tetraaza-as-indacen-1-yl)-cyclohexyl]-acetonitrile]
0.00149 | 0.00205 | 0.00911 | 0.00053 | – | – | N#CCC[C@H]1CC[C@H](n2c(CO)nc3cnc4[nH]ccc4c32)CC1 [Example 646, 3-[4-(2-hydroxymethyl-6H-1,2,3,5,6-tetraaza-as-indacen-1-yl)-cyclohexyl]-propionitrile]

Reference: patent US8461328B2, “Tricyclic heterocyclic compounds, compositions and methods of use thereof” (Genentech, Inc., priority 2010, dated 2013)
